According to US9844536B2, “3-(1H-imidazo[4,5-C]pyridin-2-yl)-1H-pyrazolo[3,4-C]pyridine and therapeutic uses thereof” (Samumed, LLC, priority 2014, dated 2017):

How the values were obtained:
[1] = tested on: Wnt pathway (Sp5-Luc reporter, SW480 cells); assay: Sp5-Luc reporter gene screening assay for Wnt activity in SW480 colon carcinoma cells; assay type: cell-based; details: Homo sapiens
Description: The screening assay for Wnt activity is described as follows. Reporter cell lines can be generated by stably transducing cancer cell lines (e.g., colon cancer) or primary cells (e.g., IEC-6 intestinal cells) with a lentiviral construct that includes a Wnt-responsive promoter driving expression of the firefly luciferase gene.
SW480 colon carcinoma cells were transduced with a lentiviral vector expressing luciferase with a human Sp5 promoter consisting of a sequence of eight TCF/LEF binding sites. SW480 cells stably expressing the Sp5-Luc reporter gene and a hygromycin resistance gene were selected by treatment with 150 μg/ml of hygromycin for 7 days. These stably transduced SW480 cells were expanded in cell culture and used for all further screening activities. For Sp5-Luc reporter gene assays, the cells were plated at 10,000 cells/well in 96-well plates with growth medium containing 10% fetal calf serum and incubated overnight at 37° C. and 5% CO2. Each compound was dissolved in DMSO as a 10 mM stock in standard j-vials and used to prepare compound source plates in dose-response format with 3-fold serial dilutions and a 10 mM top concentration. Compound transfer from serially diluted source plates to assay plates containing the cells was accomplished using a pintool (Multimek 96, Beckman equipped with V&P Scientific FP1S50H pins) based liquid handling protocol. This protocol used a slotted pin to transfer 50 nl of compound from a source plate well to an assay plate well containing 50 μl of cells in growth medium. […] Control wells received 50 nl of DMSO treatment for normalization and calculating IC50 values. The treated cells were incubated at 37° C. and 5% CO2 for an additional forty-two hours. Following incubation, the growth medium was removed and 50 μl of BrightGlo luminescence reagent (Promega) was added to each well of the 96-well assay plates. The plates were placed on an orbital shaker for 5 min and then luminescence was quantified on the Victor3 (Perkin Elmer) plate reader. Readings were normalized to DMSO only treated cells, and normalized activities were utilized for IC50 calculations using the dose-response log (inhibitor) vs. response-variable slope (four parameters) nonlinear regression feature available in GraphPad Prism 5.0 or 6.0.

LL29 cells = assay: Inhibition of the fibrotic process (αSMA staining) in TGF-β1 treated primary human fibroblasts from IPF patients; assay type: cell-based; details: Fibroblast, 96 h, TGF-β1 20 ng/mL, 4 days, dose-response 10 μM to 1.87 nM, read-out: Inhibition of fibrosis EC50
Description: The above synthesized compounds were screened using primary human fibroblasts (derived from IPF patients) treated with TGF-β1 to determine their ability to inhibit the fibrotic process.
Primary human fibroblasts derived from IPF patients (LL29 cells) [^1Xiaoqiu Liu, et. al., “Fibrotic Lung Fibroblasts Show Blunted Inhibition by cAMP Due to Deficient cAMP Response Element-Binding Protein Phosphorylation”, Journal of Pharmacology and Experimental Therapeutics (2005), 315(2), 678-687; ^2Watts, K. L., et. al., “RhoA signaling modulates cyclin D1 expression in human lung fibroblasts; implications for idiopathic pulmonary fibrosis”, Respiratory Research (2006), 7(1), 88] were obtained from American Type Culture Collection (ATCC) and expanded in F12 medium supplemented with 15% Fetal Bovine Serum and Penicillin/Streptomycin.
Each compound was dissolved in DMSO as a 10 mM stock and used to prepare compound source plates. Serial dilution (1:2, 11-point dose-response curves from 10 μM to 1.87 nM) and compound transfer was performed using the ECHO 550 (Labcyte, Sunnyvale, Calif.) into 384-well clear bottom assay plates (Greiner Bio-One) with appropriate DMSO backfill for a final DMSO concentration of 0.1%. LL29 cells were plated at 1,500 cells/well in 80 μl/well F12 medium supplemented with 1% Fetal Bovine Serum. One hour after addition of the cells, TGF-β1 (Peprotech; 20 ng/mL) was added to the plates to induce fibrosis (ref. 1 and 2 above). Wells treated with TGF-β1 and containing DMSO were used as controls. Cells were incubated at 37° C. and 5% CO2 for 4 days. Following incubation for 4 days, SYTOX green nucleic acid stain (Life Technologies [Thermo Fisher Scientific]) was added to the wells at a final concentration of 1 uM and incubated at room temperature for 30 min. Cells were then fixed using 4% formaldehyde (Electron Microscopy Sciences), washed 3 times with PBS followed by blocking and permeabilization using 3% Bovine Serum Albumin (BSA; Sigma) and 0.3% Triton X-100 (Sigma) in PBS. Cells were then stained with antibody specific to α-smooth muscle actin (αSMA; Abcam) (ref. 1 and 2 above) in 3% Bovine Serum Albumin (BSA; Sigma) and 0.3% Triton X-100 (Sigma) in PBS, and incubated overnight at 4° C. Cells were then washed 3 times with PBS, followed by incubation with Alexa Flor-647 conjugated secondary antibody (Life Technologies [Thermo Fisher Scientific]) and DAPI at room temperature for 1 hour. Cells were then washed 3 times with PBS and plates were sealed for imaging. αSMA staining was imaged by excitation at 630 nm and emission at 665 nm and quantified using the Compartmental Analysis program on the CellInsight CX5 (Thermo Scientific). Dead or apoptotic cells were excluded from analysis based on positive SYTOX green staining. % of total cells positive for αSMA were counted in each well and normalized to the average of 11 wells treated with TGF-31 on the same plate using Dotmatics' Studies Software. The normalized averages (fold change over untreated) of 3 replicate wells for each compound concentration were used to create dose-responses curves and EC50 values were calculated using non-linear regression curve fit in the Dotmatics' Studies Software. The EC50 values are reported.

IC50 [1] | SMILES | EC50 (LL29 cells)
219 nM | c1ccc(-c2nccc3[nH]c(-c4n[nH]c5cnc(-c6cncc(CNCC7CCCC7)c6)cc45)nc23)nc1 [Compound 154, 1-Cyclopentyl-N-((5-(3-(4-(pyridin-2-yl)-1H-imidazo[4,5-c]pyridin-2-yl)-1H-pyrazolo[3,4-c]pyridin-5-yl)pyridin-3-yl)methyl)methanamine] | 140 nM
144 nM | CCC(=O)Nc1cncc(-c2cc3c(-c4nc5c(N6CCCCC6)nccc5[nH]4)n[nH]c3cn2)c1 [Compound 157, N-(5-(3-(4-(Piperidin-1-yl)-1H-imidazo[4,5-c]pyridin-2-yl)-1H-pyrazolo[3,4-c]pyridin-5-yl)pyridin-3-yl)propionamide] | 347 nM
312 nM | CN(C)c1cncc(-c2cc3c(-c4nc5c(N6CCCCC6)nccc5[nH]4)n[nH]c3cn2)c1 [Compound 163, N,N-Dimethyl-5-(3-(4-(piperidin-1-yl)-1H-imidazo[4,5-c]pyridin-2-yl)-1H-pyrazolo[3,4-c]pyridin-5-yl)pyridin-3-amine] | ≤ 9 nM
> 10000 nM | CN(C)Cc1cncc(-c2cc3c(-c4nc5c(N6CCCCC6)nccc5[nH]4)n[nH]c3cn2)c1 [Compound 169, N,N-Dimethyl-1-(5-(3-(4-(piperidin-1-yl)-1H-imidazo[4,5-c]pyridin-2-yl)-1H-pyrazolo[3,4-c]pyridin-5-yl)pyridin-3-yl)methanamine] | 3110 nM
636 nM | O=C(Nc1cncc(-c2cc3c(-c4nc5c(N6CCCCC6)nccc5[nH]4)n[nH]c3cn2)c1)C1CC1 [Compound 175, N-(5-(3-(4-(Piperidin-1-yl)-1H-imidazo[4,5-c]pyridin-2-yl)-1H-pyrazolo[3,4-c]pyridin-5-yl)pyridin-3-yl)cyclopropanecarboxamide] | ≤ 9 nM
1080 nM | CC(C)C(=O)Nc1cncc(-c2cc3c(-c4nc5c(N6CCN(C)CC6)nccc5[nH]4)n[nH]c3cn2)c1 [Compound 217] | ≥ 9990 nM
> 10000 nM | CN1CCN(c2nccc3[nH]c(-c4n[nH]c5cnc(-c6cncc(CN7CCCCC7)c6)cc45)nc23)CC1 [Compound 223, 3-(4-(4-Methylpiperazin-1-yl)-1H-imidazo[4,5-c]pyridin-2-yl)-5-(5-(piperidin-1-ylmethyl)pyridin-3-yl)-1H-pyrazolo[3,4-c]pyridine] | ≥ 9990 nM
> 10000 nM | CN1CCN(c2nccc3[nH]c(-c4n[nH]c5cnc(-c6cncc(NC(=O)C7CCCC7)c6)cc45)nc23)CC1 [Compound 229, N-(5-(3-(4-(4-Methylpiperazin-1-yl)-1H-imidazo[4,5-c]pyridin-2-yl)-1H-pyrazolo[3,4-c]pyridin-5-yl)pyridin-3-yl)cyclopentanecarboxamide] | ≥ 9990 nM
745 nM | CN1CCN(c2nccc3[nH]c(-c4n[nH]c5cnc(-c6cncnc6)cc45)nc23)CC1 [Compound 234, 3-(4-(4-Methylpiperazin-1-yl)-1H-imidazo[4,5-c]pyridin-2-yl)-5-(pyrimidin-5-yl)-1H-pyrazolo[3,4-c]pyridine] | 1380 nM
66.5 nM | c1cncc(-c2cc3c(-c4nc5cnccc5[nH]4)n[nH]c3cn2)c1 [Compound 238, 3-(1H-Imidazo[4,5-c]pyridin-2-yl)-5-(pyridin-3-yl)-1H-pyrazolo[3,4-c]pyridine] | ≥ 9990 nM
1300 nM | O=C(Cc1ccccc1)Nc1cncc(-c2cc3c(-c4nc5cnccc5[nH]4)n[nH]c3cn2)c1 [Compound 244, N-(5-(3-(1H-Imidazo[4,5-c]pyridin-2-yl)-1H-pyrazolo[3,4-c]pyridin-5-yl)pyridin-3-yl)-2-phenylacetamide] | ≥ 9990 nM
532 nM | O=C(Nc1cncc(-c2cc3c(-c4nc5cnccc5[nH]4)n[nH]c3cn2)c1)C1CCCCC1 [Compound 256, N-(5-(3-(1H-Imidazo[4,5-c]pyridin-2-yl)-1H-pyrazolo[3,4-c]pyridin-5-yl)pyridin-3-yl)cyclohexanecarboxamide] | ≥ 9990 nM
139 nM | CC(C)CC(=O)Nc1cncc(-c2cc3c(-c4nc5c(-c6ccsc6)nccc5[nH]4)n[nH]c3cn2)c1 [Compound 262, 3-Methyl-N-(5-(3-(4-(thiophen-3-yl)-1H-imidazo[4,5-c]pyridin-2-yl)-1H-pyrazolo[3,4-c]pyridin-5-yl)pyridin-3-yl)butanamide] | ≥ 9990 nM
59.9 nM | Cc1ccncc1-c1cc2c(-c3nc4c(-c5ccsc5)nccc4[nH]3)n[nH]c2cn1 [Compound 265, 5-(4-Methylpyridin-3-yl)-3-(4-(thiophen-3-yl)-1H-imidazo[4,5-c]pyridin-2-yl)-1H-pyrazolo[3,4-c]pyridine] | 157 nM
41.3 nM | CC(C)(C)C(=O)Nc1cncc(-c2cc3c(-c4nc5c(-c6ccsc6)nccc5[nH]4)n[nH]c3cn2)c1 [Compound 268, N-(5-(3-(4-(Thiophen-3-yl)-1H-imidazo[4,5-c]pyridin-2-yl)-1H-pyrazolo[3,4-c]pyridin-5-yl)pyridin-3-yl)pivalamide] | ≥ 9990 nM
189 nM | O=C(Nc1cncc(-c2cc3c(-c4nc5c(-c6ccsc6)nccc5[nH]4)n[nH]c3cn2)c1)c1ccccc1 [Compound 271, N-(5-(3-(4-(Thiophen-3-yl)-1H-imidazo[4,5-c]pyridin-2-yl)-1H-pyrazolo[3,4-c]pyridin-5-yl)pyridin-3-yl)benzamide] | ≤ 9 nM
71.5 nM | CCCC(=O)Nc1cncc(-c2cc3c(-c4nc5c(-c6ccsc6)nccc5[nH]4)n[nH]c3cn2)c1 [Compound 277, N-(5-(3-(4-(Thiophen-3-yl)-1H-imidazo[4,5-c]pyridin-2-yl)-1H-pyrazolo[3,4-c]pyridin-5-yl)pyridin-3-yl)butyramide] | ≤ 9 nM
42.8 nM | O=C(Nc1cncc(-c2cc3c(-c4nc5c(-c6ccsc6)nccc5[nH]4)n[nH]c3cn2)c1)C1CCC1 [Compound 280, N-(5-(3-(4-(Thiophen-3-yl)-1H-imidazo[4,5-c]pyridin-2-yl)-1H-pyrazolo[3,4-c]pyridin-5-yl)pyridin-3-yl)cyclobutanecarboxamide] | ≥ 9990 nM
116 nM | c1ccc(CNCc2cncc(-c3cc4c(-c5nc6c(-c7ccsc7)nccc6[nH]5)n[nH]c4cn3)c2)cc1 [Compound 283, N-Benzyl-1-(5-(3-(4-(thiophen-3-yl)-1H-imidazo[4,5-c]pyridin-2-yl)-1H-pyrazolo[3,4-c]pyridin-5-yl)pyridin-3-yl)methanamine] | ≤ 9 nM
